Tested on: T1, Aspergillus niger NRC114 α-galactosidase
T1 construct: gene aglB; native secreted enzyme purified from culture filtrate (ammonium sulfate, Sephadex G-100, DEAE-Sephadex A-50); 64 kDa monomer by SDS-PAGE
Test: p-nitrophenol release, absorbance; Lineweaver-Burk plot
Type: biochemical
Settings: pH 3.5, 60 °C; substrate range printed as 0.04–0.8 µM; printed unit doubtful (probably mM: compared with mM literature values, assay stock 4 mM)

O=[N+]([O-])c1ccc(O[C@H]2O[C@H](CO)[C@H](O)[C@H](O)[C@H]2O)cc1 [p-nitrophenyl-α-D-galactopyranoside]
Km: 0.000401 mM
